As usually defined, the pIC50 is the negative decadic logarithm of the IC50, by convention in mol/L.

Here are results for 23 compounds from US12384768B2, “Isoxazole carboxylic acids as LPA antagonists” (BRISTOL-MYERS SQUIBB COMPANY, priority 2019, dated 2025).

One assay deals with nerve-injured mice. As to conditions: pretreatment, nerve-injured mice (Inoue et al.); cited from earlier work.
A further assay has as its target T1, human LPA1 (Homo sapiens, UniProt Q92633).
T1 construct: expressed in transfected cells; host or cells: Chinese hamster ovary (CHO) cells
Briefly: LPA1 functional antagonist assay (calcium flux). In kind it is cell-based. As to conditions: CHO cells overexpressing human LPA1; inhibition of calcium flux induced by 10 nM LPA; read-out: hLPA1 IC50. As for the experimental part: The effectiveness of compounds of the present invention as LPA1 inhibitors can be determined in an LPA1 functional antagonist assay as follows:
Chinese hamster ovary cells overexpressing human LPA1 were plated overnight (15,000 cells/well) in poly-D-lysine coated 384-well microplates (Greiner bio-one, Cat #781946) in DMEM/F12 medium (Gibco, Cat #11039). Following overnight culture, cells were loaded with calcium indicator dye (AAT Bioquest Inc, Cat #34601) for 30 minutes at 37° C. The cells were then equilibrated to room temperature for 30 minutes before the assay. Test compounds solubilized in DMSO were transferred to 384 well non-binding surface plates (Corning, Cat #3575) using the Labcyte Echo acoustic dispense and diluted with assay buffer [1×HBSS with calcium/magnesium (Gibco Cat #14025-092), 20 mM HEPES (Gibco Cat #15630-080) and 0.1% fatty acid free BSA (Sigma Cat #A9205)] to a final concentration of 0.5% DMSO. Diluted compounds were added to the cells by FDSS6000 (Hamamatsu) at final concentrations ranging from 0.08 nM to 5 μM. and were then incubated for 20 min at room temperature at which time LPA (Avanti Polar Lipids Cat #857130C) was added at final concentrations of 10 nM to stimulate the cells. The compound IC50 value was defined as the concentration of test compound which inhibited 50% of the calcium flux induced by LPA alone. IC50 values were determined by fitting data to a 4-parameter logistic equation (GraphPad Prism, San Diego CA).
A general note: Calcium assays in cells follow changes in intracellular calcium, usually with a dye or a luminescent sensor.

For a further assay, the system named is IPF patients. Conditions: 26-week clinical trial, IPF patients (Palmer et al.); cited from earlier work.
Assay [1] deals with mouse epithelial renal cell line, MCT. Conditions: MCT cells, co-treatment with LPA; cited from earlier work.
Assay [2] concerns human foetal lung fibroblasts. As to conditions: Tager et al.; cited from earlier work.
A further assay relates to UUO mice. As to conditions: cited from earlier work.
In assay [3] the test system is pancreatic cancer cell lines. Conditions: cited from earlier work.

Structures are written as SMILES. pIC50: −log10 of the molar value.

T1 sequence (Q92633 whole entry): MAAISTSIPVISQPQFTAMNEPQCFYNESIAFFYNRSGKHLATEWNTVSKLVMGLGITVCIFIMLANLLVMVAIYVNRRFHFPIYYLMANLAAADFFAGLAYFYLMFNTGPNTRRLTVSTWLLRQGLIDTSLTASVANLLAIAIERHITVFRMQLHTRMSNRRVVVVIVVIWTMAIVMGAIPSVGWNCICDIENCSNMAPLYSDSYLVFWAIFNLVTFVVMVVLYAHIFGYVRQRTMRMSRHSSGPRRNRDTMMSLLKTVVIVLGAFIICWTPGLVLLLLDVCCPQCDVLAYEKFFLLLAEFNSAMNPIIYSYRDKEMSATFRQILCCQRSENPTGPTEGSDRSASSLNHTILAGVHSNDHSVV

Turning to `C[C@@H](N)[C@H]1CC[C@H](C(=O)Nc2ccncc2)CC1` [Example Y-27632], in the assay with nerve-injured mice, the allodynia and hyperalgesia result is on record as “completely abolished”.

`Cc1noc(-c2ccc(OC3CC4C(C3)C4C(=O)O)cc2)c1COC(=O)N(C)CC1CCC1` (racemic) [Example 15, (±)-3-(4-(4-((((Cyclobutylmethyl)(methyl)carbamoyl)oxy)methyl)-3-methyl-isoxazol-5-yl)phenoxy)bicyclo[3.1.0]hexane-6-carboxylic acid]: on human LPA1, the negative logarithm of the IC50 (pIC50) is 6.25.

`Cc1noc(-c2ccc(O[C@H]3CCO[C@@H](C(=O)O)C3)cc2)c1COC(=O)N(C)CCC(C)C` (racemic) [Example 7]: the pIC50 on human LPA1 was 6.70.

Turning to `Cc1noc(-c2ccc(O[C@@H]3CCO[C@H](C(=O)O)C3)cc2)c1COC(=O)N(C)CCC(C)C` (single isomer, unassigned) [Example 9], the pIC50 on human LPA1 is 7.39.

With `Cc1noc(-c2ccc(-c3ccc(C4(C(=O)O)CC4)cc3)cc2)c1NC(=O)O[C@H](C)c1ccccc1` [BMS-986020], in the assay on IPF patients, the “rate of FVC (forced vital capacity) decline” value was “significantly reduce”.

On to `Cc1noc(-c2ccc(O[C@@H]3COC[C@@H](C(=O)O)C3)cc2)c1COC(=O)N(C)CCC(C)C` (racemic) [Example 3], for which the pIC50 on human LPA1 is 6.66.

Consider `Cc1noc(-c2ccc(OC3CCCC4C(C(=O)O)C34)cc2)c1COC(=O)N(C)C1CCCC1` (racemic) [Example 17, (±)-2-(4-(4-(((Cyclopentyl(methyl)carbamoyl)oxy)methyl)-3-methylisoxazol-5-yl)phenoxy) bicyclo [4.1.0]heptane-7-carboxylic acid], for which the pIC50 on human LPA1 is 6.40.

As to `Cc1noc(-c2ccc(O[C@H]3CCO[C@@H](C(=O)O)C3)cc2)c1COC(=O)N(C)C1CCCC1` (racemic) [Example 6, (±)-cis-4-(4-(4-(((cyclopentyl(methyl)carbamoyl)oxy)methyl)-3-methylisoxazol-5-yl)phenoxy)tetrahydro-2H-pyran-2-carboxylic acid], the pIC50 at human LPA1 is 6.54.

On to `Cc1noc(-c2ccc(O[C@H]3CCO[C@H](C(=O)O)C3)cc2)c1COC(=O)N(C)C1CCCC1` (racemic) [Example 5, (±)-trans-4-(4-(4-(((cyclopentyl(methyl)carbamoyl)oxy)methyl)-3-methylisoxazol-5-yl)phenoxy)tetrahydro-2H-pyran-2-carboxylic acid], for which the pIC50 at human LPA1 was 6.25.

Regarding `Cc1noc(-c2ccc(CSCCC(=O)O)cc2)c1NC(=O)OC(C)c1ccccc1Cl` (stereo not drawn) [Ki16425], in assay [1], the “LPA-induced expression of CTGF” value is “almost completely suppressed”. Besides, in assay [2], the “chemotaxis of human foetal lung fibroblasts induced by BAL from IPF patients” value is on record as “blocked”. Also, the “development of renal fibrosis, profile compared with LPA1 (-/-) mice” value in the assay with UUO mice is “closely resembled the profile of LPA1 (−/−) mice”. Also, the “LPA-induced and ascites-induced invasion activity” value in assay [3] (highly peritoneal metastatic pancreatic cancer cell line) is listed as “blocked”. Moreover, the “in vitro migration in response to LPA and peritoneal fluid (ascites)” value in assay [3] (pancreatic cancer cell lines (Yamada et al.)) is “effectively blocked”.

`Cc1noc(-c2ccc(O[C@H]3C[C@H](C(=O)O)C[C@@H]4C[C@@H]43)cc2)c1COC(=O)N(C)C1CCCC1` (racemic) [Example 10, (±)-(1S,3R,5S,6S)-5-(4-(4-(((cyclopentyl(methyl)carbamoyl)oxy)methyl)-3-methyl-isoxazol-5-yl)phenoxy) bicyclo[4.1.0]heptane-3-carboxylic acid]: the pIC50 at human LPA1 was 6.74.

For the compound `Cc1noc(-c2ccc(O[C@H]3COC[C@H](C(=O)O)C3)cc2)c1COC(=O)N(C)C1CCCC1` (racemic) [Example 1, (±)-trans-5-(4-(4-(((cyclopentyl(methyl)carbamoyl)oxy)methyl)-3-methylisoxazol-5-yl)phenoxy)tetrahydro-2H-pyran-3-carboxylic acid)], the pIC50 at human LPA1 was 6.85.

As to `CCCCN(C)C(=O)OCc1c(C)noc1-c1ccc(OC2CCCC3C(C(=O)O)C23)cc1` (stereo not drawn) [Example 18], the pIC50 at human LPA1 is 6.01.

Take `Cc1noc(-c2ccc(O[C@H]3CCO[C@H](C(=O)O)C3)cc2)c1COC(=O)N(C)CCC(C)C` [Example 8]: the pIC50 at human LPA1 is 5.96.

With `Cc1noc(-c2ccc(O[C@@H]3COC[C@H](C(=O)O)C3)cc2)c1COC(=O)N(C)CCC(C)C` [Example 4], the negative logarithm of the IC50 (pIC50) on human LPA1 was 6.99.

Take `CCCCN(C)C(=O)OCc1c(C)noc1-c1ccc(O[C@@H]2C[C@H](C(=O)O)C[C@@H]3C[C@@H]32)cn1` (racemic) [Example 13, (±)-(1S,3R,5R,6S)-5-((6-(4-(((butyl(methyl)carbamoyl)oxy)methyl)-3-methyl-isoxazol-5-yl)pyridin-3-yl)oxy)bicyclo[4.1.0]heptane-3-carboxylic acid]: on human LPA1, the pIC50 is 7.66.

`Cc1noc(-c2ccc(O[C@@H]3COC[C@H](C(=O)O)C3)cc2)c1COC(=O)N(C)C1CCCC1` (racemic) [Example 2, (±)-cis-5-(4-(4-(((cyclopentyl(methyl)carbamoyl)oxy)methyl)-3-methyl-isoxazol-5-yl)phenoxy)tetrahydro-2H-pyran-3-carboxylic acid)]: at human LPA1, the pIC50 is 6.84.

For `Cc1noc(-c2ccc(OC3CCCC4C(C(=O)O)C34)cc2)c1COC(=O)N(C)CC1CCC1` (stereo not drawn) [Example 19], the pIC50 on human LPA1 was 5.87.

Turning to `CCCCN(C)C(=O)OCc1c(C)noc1-c1ccc(OC2CC3C(C2)C3C(=O)O)cc1` (stereo not drawn) [Example 16], on human LPA1, the pIC50 was 6.43.

`Cc1noc(-c2ccc(OC3CCCC4C(C(=O)O)C34)cc2)c1COC(=O)N(C)CC1CC1` (stereo not drawn) [Example 20]: the pIC50 on human LPA1 was 5.82.

As for `Cc1noc(-c2ccc(O[C@@H]3C[C@H](C(=O)O)C[C@H]4C[C@H]43)cc2)c1COC(=O)N(C)C1CCCC1` (racemic) [Example 12, (±)-(1R,3R,5R,6R)-5-(4-(4-(((cyclopentyl(methyl)carbamoyl)oxy)methyl)-3-methylisoxazol-5-yl)phenoxy)bicyclo[4.1.0]heptane-3-carboxylic acid], the pIC50 at human LPA1 was 6.71.

For `Cc1noc(-c2ccc(OC3CCC4C(C(=O)O)C34)cc2)c1COC(=O)N(C)C1CCCC1` (racemic) [Example 14, (±)-2-(4-(4-(((Cyclopentyl(methyl)carbamoyl)oxy)methyl)-3-methylisoxazol-5-yl)phenoxy)bicyclo[3.1.0]hexane-6-carboxylic acid], the pIC50 at human LPA1 is 7.32.

Turning to `Cc1noc(-c2ccc(OC3CC(C(=O)O)CC4CC43)cc2)c1COC(=O)N(C)C1CCCC1` (racemic) [Example 11, (±)-(1R,3R,5R,6R)-5-(4-(4-(((cyclopentyl(methyl)carbamoyl)oxy)methyl)-3-methylisoxazol-5-yl)phenoxy)bicyclo[4.1.0]heptane-3-carboxylic acid], the pIC50 on human LPA1 is 7.19.
